Laboratory results published in ChEMBL document CHEMBL1201861, “Genomics of Drug Sensitity in Cancer screening data, Wellcome Trust Sanger Institute”.

Legend:
Assay in all cases: cells
PSN1 = assay type: functional, cell-based, Homo sapiens; settings: Homo sapiens, PSN1;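 also: suppression of growth of human PSN1 cells, read out by a cell viability assay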
Description: SANGER: Inhibition of human PSN1 cell growth in a cell viability assay.

Ramos-2G6-4C10 = assay type: functional, cell-based, Homo sapiens; settings: Homo sapiens, Ramos-2G6-4C10;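 also: growth inhibition of the cell line, measured by a cell viability read-out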
Description: SANGER: Inhibition of human Ramos-2G6-4C10 cell growth in a cell viability assay.

JVM-2 = assay type: functional, cell-based, Homo sapiens; settings: Homo sapiens, JVM-2;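 also: growth inhibition of JVM-2 cells determined by a cell viability assay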
Description: SANGER: Inhibition of human JVM-2 cell growth in a cell viability assay.

ES8 = assay type: functional, cell-based, Homo sapiens; settings: Homo sapiens, ES8;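 also: growth inhibition of human ES8 cells, read out with a cell viability assay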
Description: SANGER: Inhibition of human ES8 cell growth in a cell viability assay.

EW-13 = assay type: functional, cell-based, Homo sapiens; settings: Homo sapiens, EW-13;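 also: growth inhibition of EW-13 cells, read out with a cell viability assay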
Description: SANGER: Inhibition of human EW-13 cell growth in a cell viability assay.

SNU1 = assay type: functional, cell-based, Homo sapiens; settings: Homo sapiens, SNU1;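 also: growth inhibition of human NCI-SNU-1 cells, measured with a cell viability assay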
Description: SANGER: Inhibition of human NCI-SNU-1 cell growth in a cell viability assay.

MHH-NB-11 = assay type: functional, cell-based, Homo sapiens; settings: Homo sapiens, MHH-NB-11;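 also: growth inhibition of human MHH-NB-11 cells, read out by a cell viability assay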
Description: SANGER: Inhibition of human MHH-NB-11 cell growth in a cell viability assay.

MEG-01 = assay type: functional, cell-based, Homo sapiens; settings: Homo sapiens, MEG-01;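 also: growth inhibition of MEG-01 cells, read out by a cell viability assay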
Description: SANGER: Inhibition of human MEG-01 cell growth in a cell viability assay.

KARPAS-299 = assay type: functional, cell-based, Homo sapiens; settings: Homo sapiens, KARPAS-299
Description: SANGER: Inhibition of human KARPAS-299 cell growth in a cell viability assay.

HH = assay type: functional, cell-based, Homo sapiens; settings: Homo sapiens, HH
Description: SANGER: Inhibition of human HH cell growth in a cell viability assay.

NH-12 = assay type: functional, cell-based, Homo sapiens; settings: Homo sapiens, NH-12;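 also: growth inhibition of NH-12 cells, read out with a cell viability assay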
Description: SANGER: Inhibition of human NH-12 cell growth in a cell viability assay.

ES6 = assay type: functional, cell-based; settings: Homo sapiens;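 also: growth inhibition of human ES6 cells, read out with a cell viability assay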
Description: SANGER: Inhibition of human ES6 cell growth in a cell viability assay.

TE-12 = assay type: functional, cell-based, Homo sapiens; settings: Homo sapiens, TE-12;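 also: growth inhibition of TE-12 cells, read out by a cell viability assay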
Description: SANGER: Inhibition of human TE-12 cell growth in a cell viability assay.

CCRF-CEM = assay type: functional, cell-based, Homo sapiens; settings: Homo sapiens, CCRF-CEM;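 also: inhibition of CCRF-CEM cell growth, measured by a cell viability assay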
Description: SANGER: Inhibition of human CCRF-CEM cell growth in a cell viability assay.

DSH1 = assay type: functional, cell-based; settings: Homo sapiens;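 also: growth inhibition of human DSH1 cells, measured with a cell viability readout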
Description: SANGER: Inhibition of human DSH1 cell growth in a cell viability assay.

GB-1 = assay type: functional, cell-based, Homo sapiens; settings: Homo sapiens, GB-1;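 also: growth of GB-1 cells judged by a viability assay, IC50 marks the concentration inhibiting growth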
Description: SANGER: Inhibition of human GB-1 cell growth in a cell viability assay.

8-MG-BA = assay type: functional, cell-based, Homo sapiens; settings: Homo sapiens, 8-MG-BA;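 also: growth inhibition of 8-MG-BA cells, read out with a cell viability assay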
Description: SANGER: Inhibition of human 8-MG-BA cell growth in a cell viability assay.

ES5 = assay type: functional, cell-based, Homo sapiens; settings: Homo sapiens, ES5;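 also: growth inhibition of human ES5 cells, read out by a cell viability assay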
Description: SANGER: Inhibition of human ES5 cell growth in a cell viability assay.

TE-9 = assay type: functional, cell-based, Homo sapiens; settings: Homo sapiens, TE-9;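 also: cell growth inhibition, measured with a cell viability readout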
Description: SANGER: Inhibition of human TE-9 cell growth in a cell viability assay.

HCC2157 = assay type: functional, cell-based, Homo sapiens; settings: Homo sapiens, HCC2157;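 also: growth inhibition of the cancer cell line, read out as cell viability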
Description: SANGER: Inhibition of human HCC2157 cell growth in a cell viability assay.

LS-513 = assay type: functional, cell-based, Homo sapiens; settings: Homo sapiens, LS-513
Description: SANGER: Inhibition of human LS-513 cell growth in a cell viability assay.

LU-134-A = assay type: functional, cell-based, Homo sapiens; settings: Homo sapiens, LU-134-A
Description: SANGER: Inhibition of human LU-134-A cell growth in a cell viability assay.

JVM-3 = assay type: functional, cell-based, Homo sapiens; settings: Homo sapiens, JVM-3;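 also: growth inhibition of human JVM-3 cells, read out with a cell viability assay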
Description: SANGER: Inhibition of human JVM-3 cell growth in a cell viability assay.

Mo = assay type: functional, cell-based, Homo sapiens; settings: Homo sapiens, Mo
Description: SANGER: Inhibition of human Mo-T cell growth in a cell viability assay.

NOS-1 = assay type: functional, cell-based, Homo sapiens; settings: Homo sapiens, NOS-1;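 also: growth inhibition of the human NOS-1 cell line, read out with a cell viability assay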
Description: SANGER: Inhibition of human NOS-1 cell growth in a cell viability assay.

NCI-H226 = assay type: functional, cell-based, Homo sapiens; settings: Homo sapiens, NCI-H226;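 also: cell viability read-out used to gauge growth inhibition of the cells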
Description: SANGER: Inhibition of human NCI-H226 cell growth in a cell viability assay.

LOX IMVI = assay type: functional, cell-based, Homo sapiens; settings: Homo sapiens, LOX IMVI
Description: SANGER: Inhibition of human LOXIMVI cell growth in a cell viability assay.

ML-2 = assay type: functional, cell-based, Homo sapiens; settings: Homo sapiens, ML-2;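 also: growth inhibition of ML-2 cells, measured with a cell viability readout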
Description: SANGER: Inhibition of human ML-2 cell growth in a cell viability assay.

COLO-320-HSR = assay type: functional, cell-based, Homo sapiens; settings: Homo sapiens, COLO-320-HSR;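 also: growth inhibition of COLO-320-HSR cells, determined with a cell viability assay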
Description: SANGER: Inhibition of human COLO-320-HSR cell growth in a cell viability assay.

LB996-RCC = assay type: functional, cell-based, Homo sapiens; settings: Homo sapiens, LB996-RCC
Description: SANGER: Inhibition of human LB996-RCC cell growth in a cell viability assay.

KGN = assay type: functional, cell-based, Homo sapiens; settings: Homo sapiens, KGN;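 also: growth inhibition of KGN cells, read out with a cell viability assay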
Description: SANGER: Inhibition of human KGN cell growth in a cell viability assay.

NCI-H747 = assay type: functional, cell-based, Homo sapiens; settings: Homo sapiens, NCI-H747;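 also: growth inhibition of human NCI-H747 cells, read out by a cell viability assay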
Description: SANGER: Inhibition of human NCI-H747 cell growth in a cell viability assay.

D-263MG = assay type: functional, cell-based, Homo sapiens; settings: Homo sapiens, D-263MG
Description: SANGER: Inhibition of human D-263MG cell growth in a cell viability assay.

NTERA-2-cl-D1 = assay type: functional, cell-based, Homo sapiens; settings: Homo sapiens, NTERA-2-cl-D1;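 also: inhibition of cell growth, measured with a cell viability assay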
Description: SANGER: Inhibition of human NTERA-S-cl-D1 cell growth in a cell viability assay.

HL-60 = assay type: functional, cell-based, Homo sapiens; settings: Homo sapiens, HL-60;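 also: growth inhibition of human HL-60 cells, read out with a cell viability assay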
Description: SANGER: Inhibition of human HL-60 cell growth in a cell viability assay.

ES7 = assay type: functional, cell-based, Homo sapiens; settings: Homo sapiens, ES7;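 also: growth inhibition of cultured human ES7 cells, read out as cell viability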
Description: SANGER: Inhibition of human ES7 cell growth in a cell viability assay.

OS-RC-2 = assay type: functional, cell-based, Homo sapiens; settings: Homo sapiens, OS-RC-2;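 also: growth inhibition of human OS-RC-2 cells, measured by a cell viability assay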
Description: SANGER: Inhibition of human OS-RC-2 cell growth in a cell viability assay.

KINGS-1 = assay type: functional, cell-based, Homo sapiens; settings: Homo sapiens, KINGS-1;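 also: cell viability assay measuring suppression of KINGS-1 cell growth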
Description: SANGER: Inhibition of human KINGS-1 cell growth in a cell viability assay.

SW872 = assay type: functional, cell-based, Homo sapiens; settings: Homo sapiens, SW872;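 also: growth inhibition of SW872 cells, read out by a viability assay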
Description: SANGER: Inhibition of human SW872 cell growth in a cell viability assay.

MZ7-mel = assay type: functional, cell-based, Homo sapiens; settings: Homo sapiens, MZ7-mel;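 also: growth inhibition of human MZ7-mel cells, measured by a cell viability assay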
Description: SANGER: Inhibition of human MZ7-mel cell growth in a cell viability assay.

KU812 cell line = assay type: functional, cell-based, Homo sapiens; settings: Homo sapiens, KU812;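 also: growth inhibition of KU812 cells, read out with a cell viability assay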
Description: SANGER: Inhibition of human KU812 cell growth in a cell viability assay.

SF-539 = assay type: functional, cell-based, Homo sapiens; settings: Homo sapiens, SF-539;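 also: Read-out is a cell viability assay, with IC50 reflecting inhibition of cell growth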
Description: SANGER: Inhibition of human SF539 cell growth in a cell viability assay.

BV-173 = assay type: functional, cell-based, Homo sapiens; settings: Homo sapiens, BV-173
Description: SANGER: Inhibition of human BV-173 cell growth in a cell viability assay.

KE-37 = assay type: functional, cell-based, Homo sapiens; settings: Homo sapiens, KE-37;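 also: growth inhibition of KE-37 cells, read out with a cell viability assay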
Description: SANGER: Inhibition of human KE-37 cell growth in a cell viability assay.

QIMR-WIL = assay type: functional, cell-based, Homo sapiens; settings: Homo sapiens, QIMR-WIL;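 also: growth inhibition of QIMR-WIL cells, read out with a cell viability assay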
Description: SANGER: Inhibition of human QIMR-WIL cell growth in a cell viability assay.

NOMO-1 = assay type: functional, cell-based, Homo sapiens; settings: Homo sapiens, NOMO-1;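 also: growth inhibition of human NOMO-1 cells measured by a cell viability assay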
Description: SANGER: Inhibition of human NOMO-1 cell growth in a cell viability assay.

KG-1 = assay type: functional, cell-based, Homo sapiens; settings: Homo sapiens, KG-1;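 also: growth inhibition of KG-1 cells, read out by a cell viability assay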
Description: SANGER: Inhibition of human KG-1 cell growth in a cell viability assay.

NCI-H1650 = assay type: functional, cell-based, Homo sapiens; settings: Homo sapiens, NCI-H1650;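 also: growth inhibition of human NCI-H1650 cells measured by a cell viability assay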
Description: SANGER: Inhibition of human NCI-H1650 cell growth in a cell viability assay.

KLE = assay type: functional, cell-based; settings: Homo sapiens;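 also: growth inhibition of human KLE cells, read out with a cell viability assay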
Description: SANGER: Inhibition of human KLE cell growth in a cell viability assay.

TE-11 = assay type: functional, cell-based; settings: Homo sapiens;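 also: growth inhibition of human TE-11 cells, read out by a cell viability assay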
Description: SANGER: Inhibition of human TE-11 cell growth in a cell viability assay.

Nc1ccccc1NC(=O)c1ccc(CNC(=O)OCc2cccnc2)cc1 [ENTINOSTAT]
IC50 (PSN1): 1420 nM
IC50 (Ramos-2G6-4C10): 439 nM
IC50 (JVM-2): > 5000 nM
IC50 (ES8): 360 nM
IC50 (EW-13; read-out: IC50): > 5000 nM
IC50 (SNU1): > 5000 nM
IC50 (MHH-NB-11): 435 nM
IC50 (MEG-01): 1220 nM
IC50 (KARPAS-299): 585 nM
IC50 (HH): 990 nM
IC50 (NH-12): > 5000 nM
IC50 (ES6): 964 nM
IC50 (TE-12): 3520 nM
IC50 (CCRF-CEM): 747 nM
IC50 (DSH1): 287 nM
IC50 (GB-1): 1940 nM
IC50 (8-MG-BA): 1290 nM
IC50 (ES5): > 5000 nM
IC50 (TE-9): 1840 nM
IC50 (HCC2157): 1430 nM
IC50 (LS-513): 445 nM
IC50 (LU-134-A): 571 nM
IC50 (JVM-3): > 5000 nM
IC50 (Mo): > 5000 nM
IC50 (NOS-1): 196 nM
IC50 (NCI-H226): > 5000 nM
IC50 (LOX IMVI): 1930 nM
IC50 (ML-2): 2330 nM
IC50 (COLO-320-HSR): 2860 nM
IC50 (LB996-RCC): 1470 nM
IC50 (KGN): 2770 nM
IC50 (NCI-H747): 3050 nM
IC50 (D-263MG): > 5000 nM
IC50 (NTERA-2-cl-D1): 201 nM
IC50 (HL-60): 543 nM
IC50 (ES7): 1800 nM
IC50 (OS-RC-2): 968 nM
IC50 (KINGS-1): 4310 nM
IC50 (SW872): 1810 nM
IC50 (MZ7-mel): 561 nM
IC50 (KU812 cell line): 1700 nM
IC50 (SF-539): 196 nM
IC50 (BV-173): 371 nM
IC50 (KE-37): 643 nM
IC50 (QIMR-WIL): 683 nM
IC50 (NOMO-1): 811 nM
IC50 (KG-1): 1620 nM
IC50 (NCI-H1650): > 5000 nM

Cc1ccc(NC(=O)c2ccc(CN3CCN(C)CC3)cc2)cc1Nc1nccc(-c2cccnc2)n1 [IMATINIB]
IC50 (KLE): > 2000 nM
IC50 (PSN1): > 2000 nM
IC50 (Ramos-2G6-4C10): > 2000 nM
IC50 (JVM-2): > 2000 nM
IC50 (ES8): > 2000 nM
IC50 (EW-13): > 2000 nM
IC50 (SNU1): > 2000 nM
IC50 (MHH-NB-11): > 2000 nM
IC50 (MEG-01): 89.2 nM
IC50 (KARPAS-299): > 2000 nM
IC50 (HH): > 2000 nM
IC50 (NH-12): > 2000 nM
IC50 (ES6): > 2000 nM
IC50 (TE-12): > 2000 nM
IC50 (CCRF-CEM): > 2000 nM
IC50 (DSH1): > 2000 nM
IC50 (GB-1): > 2000 nM
IC50 (8-MG-BA): > 2000 nM
IC50 (ES5): > 2000 nM
IC50 (TE-9): > 2000 nM
IC50 (HCC2157): > 2000 nM
IC50 (LS-513): > 2000 nM
IC50 (LU-134-A): > 2000 nM
IC50 (JVM-3): > 2000 nM
IC50 (Mo): > 2000 nM
IC50 (NOS-1): 1650 nM
IC50 (NCI-H226): > 2000 nM
IC50 (LOX IMVI): > 2000 nM
IC50 (ML-2): > 2000 nM
IC50 (COLO-320-HSR): > 2000 nM
IC50 (LB996-RCC): > 2000 nM
IC50 (KGN): > 2000 nM
IC50 (NCI-H747): > 2000 nM
IC50 (TE-11): > 2000 nM
IC50 (D-263MG): > 2000 nM
IC50 (HL-60): > 2000 nM
IC50 (ES7): > 2000 nM
IC50 (OS-RC-2): > 2000 nM
IC50 (KINGS-1): > 2000 nM
IC50 (SW872): > 2000 nM
IC50 (MZ7-mel): > 2000 nM
IC50 (KU812 cell line): > 2000 nM
IC50 (SF-539): > 2000 nM
IC50 (BV-173): 187 nM
IC50 (KE-37): > 2000 nM
IC50 (QIMR-WIL): > 2000 nM
IC50 (NOMO-1): > 2000 nM
IC50 (KG-1): > 2000 nM
